# Values joined by “and” are separate entries in the source; they are usually repeats but may differ in a detail not shown here. Equal entries are not always repeated. Marks after values point to notes of the source that are not given here. Numbered stars: 1 amine (or outer) side, 2 acyl side, 3 side chain; on linkers, the order of the positions; unused ones are H or OH. Square brackets hold non-standard residues; d marks the D form. Side chains are listed from the residue outwards. Peptide text beside a SMILES is read from it. * marks the point of attachment. Ethylenediamine = C(CN[*:2])N[*:1]; Hyp = O=C(O)[C@@H]1C[C@@H](O)CN1; Phg = N[C@H](C(=O)O)c1ccccc1; CO = O=C([*:1])[*:2]; Bn = c1ccc(C*)cc1
# B1: bGH: growth hormone (bGH) given to GH deficient mice by Alzet pump (protein, UniProt P01246 27-217, looked up)
# Somatotropin: AFPAMSLSGLFANAVLRAQHLHQLAADTFKEFERTYIPEGQRYSIQNTQVAFCFSETIPAPTGKNEAQQKSDLELLRISLLLIQSWLGPLQFLSRVFTNSLVFGTSDRVYEKLKDLEEGILALMRELEDGTPRAGQILKQTYDKFDTNMRSDDALLKNYGLLSCFRKDLHKTETYLRVMKCRRFGEASCAF
# B2: IGFBP-1: insulin-like growth factor binding protein, inhibitor of IGF-I action (protein, UniProt P08833 26-259, looked up)
# Insulin-like growth …: APWQCAPCSAEKLALCPPVSASCSEVTRSAGCGCCPMCALPLGAACGVATARCARGLSCRALPGEQQPLHALTRGQGACVQESDASAPHAAEAGSPESPESTEITEEELLDNFHLMAPSEEDHSILWDAISTYDGSKALHVTNIKKWKEPCRIELYRVVESLAKAQETSGEEISKFYLPNCNKNGFYHSRQCETSMDGEAGLCWCVYPWNGKRIPGSPEIRGDPNCQIYFNVQN
# Assays:
# [1] = tested on: prostate of estradiol-treated male Wistar rats; assay: Estradiol-treated male Wistar rat model of BPH; assay type: in vivo; conditions: for mean gland size: difference not significant
# Source text: To evaluate further the efficacy of somatostatin 14 (SS-14) in the treatment of BPH and related urinary tract obstruction, the present inventors used an animal model system in which prostate hyperplasia, together with prostatitis is induced by administration of estradiol to male Wistar rats. The estradiol-treated Wistar rat animal model system was originally described by Robinette (1988, The Prostate 12:271-286; the content of which is incorporated herein in its entirety) as offering an animal model of the inflammation and fibromuscular growth observed in human BPH. Robinette also described the estradiol-treated Wistar rat animal model system as useful for identifying factors and/or xenobiotics that can inhibit or potentially reverse progression of prostatic fibromuscular proliferation. Wilson et al. (Exp Mol Pathol. 2004; 77:7-17; the content of which is incorporated herein in its entirety) also presented guidance pertaining to the estradiol-treated Wistar rat animal model system of Robinette, offering that chronic inflammation induced in the lateral prostate by estrogen treatment is accompanied later by fibromuscular proliferation, which correlates with the prevalence of chronic inflammation in BPH in men. To assay the therapeutic benefit of IGF-I inhibitors in an animal model system, the present inventors utilized the animal model system of Robinette (supra), as modified in accordance with standard methodology as set forth herein.
# Three month old Wistar rats were treated for 2 weeks with 1-cm long 0.078 i.d.×0.125 o.d. Silastic tubings filled with estradiol (E2). Another group of estradiol treated animals was also given SS-14 via Alzet pump implanted into the subcutaneous fat of the back, at a dosage of 15 μg/kg/hour. At the end of the treatment period animals were sacrificed and prostates removed en bloc. A total of four animals were analyzed per group.
# Prior to fixing and embedding, prostates were weighed. Bladder and coagulating glands were removed and the remaining tissues were embedded with urethral opening down. Blocks were then sectioned at 150 μm intervals.
# The effect on total area of prostate occupied by glands was also assessed. To determine whether SS-14 would have an inhibitory effect on the glandular component of the prostate, the area of the organ occupied by glands in transverse sections, including the urethra and cut at the level at which the width of the prostate was maximal, was measured. Gland area is expressed as it relates to the total area of the organ in transverse sections.
# The effect of SS-14 on the Fibromuscular Compartment surrounding the Urethra was also evaluated. To determine whether SS-14 reduced the fibromuscular component of the urethra, tissue sections were immunostained for smooth muscle α actin (αSMA). Each prostate was cut at 5 different levels, with 150 microns between each set of sections. The results of αSMA staining are shown in the photomicrographs depicted in FIG. 8; the whole urethra is indicated by circles and the surrounding fibromuscular layer by arrows.
# mammary gland = conditions: cited from earlier work
# [2] = tested on: prostate of intact 28 day old male mice; assay: PQ401 or SS14 treatment of intact 28 day old male mice: prostate; assay type: in vivo
# Experimental: To examine further the effect of various compounds on glandular and fibromuscular development of the prostate, somatostatin-14 (SS14, a native somatostatin) and an exemplary small molecule IGF-I receptor inhibitor PQ401 were assessed in a variety of animal models.
# (§1) In a first experimental approach, the effect of treatment of intact 28 day old male mice with vehicle or PQ401 (a small molecule IGF-I receptor specific inhibitor) or somatostatin-14 (SS14; a native somatostatin) was evaluated. PQ401 and SS14 inhibit IGF-I action. For these experiments, N=5 mice per group. The results of these experiments are presented below in Tables 7-10: […]
# [3] = PQ401 or SS14 treatment of intact 28 day old male mice: body weight; assay type: in vivo
# Experimental: as §1
# [4] = tested on: patients suffering from acromegaly; conditions: acromegalic patients, 1 year, cited from earlier work
# [5] = tested on: prostate of castrated Ames dwarf mice; assay: IGFBP-1 inhibition of GH-induced prostate development in castrated Ames dwarf mice; assay type: in vivo; conditions: 10-wk-old castrated Ames dwarf mice, 7 d
# Experimental: To determine whether IGF-I inhibition could impair prostate development induced by GH-stimulated IGF-I and normal development in eugonadal animals, the effect of IGFBP-1 was tested in the following two models.
# Ames dwarf mice have impaired prostate development because they are deficient in GH. They are also deficient in prolactin, TSH, and gonadotrophins (Andersen et al., 1995, Dev Biol 172:495-503; the entire content of which is incorporated herein by reference). To determine if IGFBP-1 could prevent bGH-induced IGF-I action, 10-wk-old castrated Ames animals were treated with bGH with or without infusion of IGFBP-1 for 7 d. IGFBP-1 inhibited GH-induced fibromuscular and glandular development (Table 6).
# IGF-I = IGF-I by RIA in homogenates of prostate glands after bGH; assay type: in vivo; conditions: 87 day old male mice, bGH 200 μg daily for 4 days; untreated 223
# Experimental: IGF-I, as measured by RIA, was detected in homogenates of prostate glands from 87 day old male mice (223 ng/5 prostates). When bGH (200 μg daily for 4 days) was administered IGF-I rose to 418-526 ng/5 prostates. Serum IGF-I was 494 ng/ml in normal male mice. The IGF-I in prostate was likely produced there because bGH increases IGF-I mRNA in prostate.
# [6] = tested on: prostate of IGF-I^(−/−) null male mice; assay: Restoration of prostate development in IGF-I(-/-) null male mice; assay type: in vivo
# Source text: That IGF-I was also found to be essential for full prostate development was shown in a series of experiments employing IGF-I^(−/−) null male mice.
# [7] = tested on: prostate of Lit/Lit dwarf animals; assay: bGH restoration of impaired prostate development in Lit/Lit dwarf animals; assay type: in vivo; conditions: Lit/Lit dwarf mice
# Experimental: These include transgenic mice overexpressing a GH antagonist (that binds to and inactivates GH receptors making the animals functionally deficient in GH), growth hormone releasing factor receptor (GHRH-R^−/−) knockout mice (Lit/Lit), and Ames (df/df) mice (Prop 1 Deficiency). Deficient prostate development in GH inhibitor overexpression animals was previously reported (see Ruan et al, Endocrinology 140:1984-1989, 1999). Analysis of development was determined by dissecting away the periprostatic fat and teasing the glandular structures from the connective tissue in a solution containing collagenase so that the entire glandular tree could be photographed for later structural analysis. Much the same as in the mice overexpressing the mutant growth hormone, the other GH deficient mice had significant impairment of prostate development (p<0.0002) including a reduction in the number of terminal duct tips (TDTs), the area of the prostate gland, the number of quaternary branches and the number of branch points (TABLE 3). Any differences in these GH deficient mice may in part be due to the fact that the different strains were not analyzed at exactly the same age (Lit/Lit 50 days old, Ames 47 days old and bGH transgenic 44 days of age). The n was also different which may have led to greater significance in the Lit/Lit mice.
# The fact that GH treatment was capable of restoring impaired prostate development in GH deficient mice was shown in an experiment on Lit/Lit dwarf animals. Groups of animals were treated with either bGH (100 μg over 7 days by Alzet pump) or vehicle. The prostates were then removed and examined as described above. Treatment with bGH increased the number of TDTs from a mean of 48 (controls) to 61 (treated) p=0.011, the area of the gland from 0.71 cm^2 to 1.12 (NS), quaternary branching from 35 to 44 (p<0.01) and branch points from 37 to 46 (p=0.011).
# [8] = tested on: prostate of intact wild-type male mice; assay: IGFBP-1 effect on prostate development in 4-wk-old intact wild-type male mice; assay type: in vivo
# Experimental: FIG. 7 depicts the effect of IGFBP-1 treatment on prostate structures in intact 28 day old male mice. After 7 d of treatment with IGFBP-1 or vehicle, prostate development in both fibromuscular and glandular compartments was analyzed. Effects on fibromuscular development (A), epithelial development (B), lumen size (C), total prostate area (D), and prostate weight (E) are shown. Effects of IGFBP-1 (compared with control) on cell division and programmed cell death are shown in representative photomicrographs (F) showing the effect of IGFBP-1 (lower row) on cell division (left) and apoptosis (right) compared with control animals (top row) Arrows point to Ki67 or TUNEL staining in stroma, and arrows point to those effects in glands. Magnification, 400×. Effects of Ki67 staining (G) for cell division (left) and effects on programmed cell death by TUNEL (right). WT, Wild type.
# Eugonadal intact mice. The effect of treatment with IGH3P-1 on prostate development in 4-wk-old intact wild-type male mice was also studied. When compared with saline-treated control animals, IGFBP-1 inhibited all fibromuscular development, epithelial development, lumen size, prostate area, and prostate weight (FIG. 7, A-E). IGFBP-1 inhibited cell division in the epithelial compartment, and increased apoptosis in both fibromuscular and epithelial compartments (FIGS. 7, F and G).
# [9] = 4-wk-old intact wild-type male mice (FIG. 7, F and G)
molecule,measurement,setting,value
"C[C@]12CC[C@@H]3c4ccc(O)cc4CC[C@H]3[C@@H]1CC[C@@H]2O [E2, estradiol]","Weight of prostates, individual animals","[1]; 3 month old Wistar rats, E2 2 weeks, SS-14 15 μg/kg/hour by Alzet pump, Animal #1-#4",0.570 grams and 0.580 grams and 0.532 grams and 0.630 grams
same,MEAN WEIGHT of prostates,"[1]; 3 month old Wistar rats, E2 2 weeks, SS-14 15 μg/kg/hour, second set of experiments, p=0.019",0.578 grams
same,"Ratio between the prostate area occupied by glandular elements and the whole organ area in transverse sections, individual animals",[1]; E2-treated Wistar rats,0.8467 and 0.857 and 0.8758 and 0.8596
same,"Fibromuscular Layer Area of the urethra, MEAN AREA","[1]; E2-treated Wistar rats, αSMA immunostaining",2.938 mm2
same,"Fibromuscular Layer Area of the urethra, individual animals","[1]; E2-treated Wistar rats, αSMA immunostaining, Animal #1-#4",3.412 mm2 and 1.822 mm2 and 2.369 mm2 and 4.149 mm2
same,mean gland size,[1]; E2-treated Wistar rats,0.099 mm^2
same,"Ratio between the prostate area occupied by glandular elements and the whole organ area in transverse sections, AVERAGE","[1]; E2-treated Wistar rats, p=0.028",0.860
"NCCCC[C@@H]1NC(=O)[C@@H](Cc2c[nH]c3ccccc23)NC(=O)[C@H](c2ccccc2)NC(=O)[C@@H]2C[C@@H](OC(=O)NCCN)CN2C(=O)[C@H](Cc2ccccc2)NC(=O)[C@H](Cc2ccc(OCc3ccccc3)cc2)NC1=O [SOM230, pasireotide] (cyclo(F[Hyp]([CO-Ethylenediamine])[Phg][dW]KY(Bn)))",mammary development in rats,mammary gland,prevent mammary development
same,IRS-1 phosphorylation in the mammary gland,mammary gland; rats,reduction
"C[C@H](N)C(=O)NCC(=O)N[C@H]1CSSC[C@@H](C(=O)O)NC(=O)[C@H](CO)NC(=O)[C@H]([C@@H](C)O)NC(=O)[C@H](Cc2ccccc2)NC(=O)[C@H]([C@@H](C)O)NC(=O)[C@H](CCCCN)NC(=O)[C@H](Cc2c[nH]c3ccccc23)NC(=O)[C@H](Cc2ccccc2)NC(=O)[C@H](Cc2ccccc2)NC(=O)[C@H](CC(N)=O)NC(=O)[C@H](CCCCN)NC1=O [SS14, Somatostatin-14]",area of the Longitudinal muscle,"[2]; 28 day old male mice, controls 0.939",0.486 mm^2
same,total area of the Circular muscle,"[2]; 28 day old male mice, controls 1.322",0.438 mm^2
same,% Reduction of prostate weight,"[2]; intact 28 day old male mice, vs 28 day control",37%
same,Body weight,[3]; controls 26.9 ± 0.3,23.9 ± 0.3 gm
same,% Reduction of body weight,[3]; vs controls,11%
same,mean gland size,[1]; E2-treated Wistar rats,0.078 mm^2
same,"prostate weight of E2-treated rats, first set of experiments","[1]; vs control E2-treated rats (vehicle only), p=0.024",significant reduction
octreotide,circulating GH and IGF-I levels,[4]; in most of the patients treated,normalization
same,prostate volume,[4],reduction
B1,Epithelium,[5],"160.5 ± 4.0^c,d μm^2 (×10^3)"
same,Fibromuscular,[5],"253.4 ± 18.6^a,b μm^2 (×10^3)"
same,Lumen,[5],"274.7 ± 11.9^c,d μm^2 (×10^3)"
same,Total,[5],"688.6 ± 32.4^a,b μm^2 (×10^3)"
same,IGF-I in homogenates of prostate glands (RIA),IGF-I,418-526 ng/5 prostates
same,restoring impaired prostate development,[6],no effect
same,number of TDTs (mean),"[7]; bGH 100 μg over 7 days by Alzet pump, controls 48, p=0.011",61
same,area of the gland,"[7]; bGH 100 μg over 7 days, controls 0.71, NS",1.12 cm^2
same,quaternary branching,"[7]; bGH 100 μg over 7 days, controls 35, p<0.01",44
same,branch points,"[7]; bGH 100 μg over 7 days, controls 37, p=0.011",46
B2,apoptosis in both fibromuscular and epithelial compartments (TUNEL),[8]; [9],increased
same,cell division in the epithelial compartment (Ki67),[8]; [9],inhibited
same,"fibromuscular development, epithelial development, lumen size, prostate area, and prostate weight","[8]; 4-wk-old intact wild-type male mice, 7 d, vs saline-treated control (FIG. 7, A-E)",inhibited

# Source: US9579364B2, “Methods for treating benign prostatic hypertrophy (BPH)” (New York University, priority 2002, dated 2017)
